Source: ChEMBL document CHEMBL3856231 (J Med Chem, 2016)

Columns and labels:
[1] = molecular target: T1, ALK tyrosine kinase receptor (Homo sapiens, UniProt Q9UM73); test: Inhibition of human ALK expressed in baculovirus using recombinant GST PLC-gamma as substrate assessed as phosphorylation of the substrate after 15 mins by TRF assay
[2] = Half life in rat liver microsomes by LC/MS/MS analysis; assay type: ADME
[3] = Half life in human liver microsomes by LC/MS/MS analysis; assay type: ADME
Insulin receptor = Insulin receptor (Homo sapiens, UniProt P06213)
Description: Inhibition of recombinant human INSR expressed in baculovirus using ATP as substrate after 15 mins by TRF assay

[4] = Drug level in rat liver microsomes treated with (1S,2S,3R,4R)-3-(5-chloro-2-((S)-1-methoxy-7-morpholino-6,7,8,9-tetrahydro-5H-benzo[7]annulen-2-ylamino)pyrimidin-4-ylamino)bicyclo[2.2.1]hept-5-ene-2-carboxamide at 10 uM after 120 mins in presence of NADPH by LC/MS/MS analysis; assay type: ADME; settings: 2 h
[5] = Drug level in human liver microsomes treated with (1S,2S,3R,4R)-3-(5-chloro-2-((S)-1-methoxy-7-morpholino-6,7,8,9-tetrahydro-5H-benzo[7]annulen-2-ylamino)pyrimidin-4-ylamino)bicyclo[2.2.1]hept-5-ene-2-carboxamide at 10 uM after 120 mins in presence of NADPH by LC/MS/MS analysis; assay type: ADME; settings: 2 h
[6] = Half life in CD-1 mouse liver microsomes by LC/MS/MS analysis; assay type: ADME
[7] = molecular target: T1, ALK tyrosine kinase receptor; test: Inhibition of NPM-ALK phosphorylation in human SUP-M2 cells after 2 to 3 hrs by ELISA; assay type: cell-based
Target sequence in this assay (Q9UM73 19-1620 limits assumed): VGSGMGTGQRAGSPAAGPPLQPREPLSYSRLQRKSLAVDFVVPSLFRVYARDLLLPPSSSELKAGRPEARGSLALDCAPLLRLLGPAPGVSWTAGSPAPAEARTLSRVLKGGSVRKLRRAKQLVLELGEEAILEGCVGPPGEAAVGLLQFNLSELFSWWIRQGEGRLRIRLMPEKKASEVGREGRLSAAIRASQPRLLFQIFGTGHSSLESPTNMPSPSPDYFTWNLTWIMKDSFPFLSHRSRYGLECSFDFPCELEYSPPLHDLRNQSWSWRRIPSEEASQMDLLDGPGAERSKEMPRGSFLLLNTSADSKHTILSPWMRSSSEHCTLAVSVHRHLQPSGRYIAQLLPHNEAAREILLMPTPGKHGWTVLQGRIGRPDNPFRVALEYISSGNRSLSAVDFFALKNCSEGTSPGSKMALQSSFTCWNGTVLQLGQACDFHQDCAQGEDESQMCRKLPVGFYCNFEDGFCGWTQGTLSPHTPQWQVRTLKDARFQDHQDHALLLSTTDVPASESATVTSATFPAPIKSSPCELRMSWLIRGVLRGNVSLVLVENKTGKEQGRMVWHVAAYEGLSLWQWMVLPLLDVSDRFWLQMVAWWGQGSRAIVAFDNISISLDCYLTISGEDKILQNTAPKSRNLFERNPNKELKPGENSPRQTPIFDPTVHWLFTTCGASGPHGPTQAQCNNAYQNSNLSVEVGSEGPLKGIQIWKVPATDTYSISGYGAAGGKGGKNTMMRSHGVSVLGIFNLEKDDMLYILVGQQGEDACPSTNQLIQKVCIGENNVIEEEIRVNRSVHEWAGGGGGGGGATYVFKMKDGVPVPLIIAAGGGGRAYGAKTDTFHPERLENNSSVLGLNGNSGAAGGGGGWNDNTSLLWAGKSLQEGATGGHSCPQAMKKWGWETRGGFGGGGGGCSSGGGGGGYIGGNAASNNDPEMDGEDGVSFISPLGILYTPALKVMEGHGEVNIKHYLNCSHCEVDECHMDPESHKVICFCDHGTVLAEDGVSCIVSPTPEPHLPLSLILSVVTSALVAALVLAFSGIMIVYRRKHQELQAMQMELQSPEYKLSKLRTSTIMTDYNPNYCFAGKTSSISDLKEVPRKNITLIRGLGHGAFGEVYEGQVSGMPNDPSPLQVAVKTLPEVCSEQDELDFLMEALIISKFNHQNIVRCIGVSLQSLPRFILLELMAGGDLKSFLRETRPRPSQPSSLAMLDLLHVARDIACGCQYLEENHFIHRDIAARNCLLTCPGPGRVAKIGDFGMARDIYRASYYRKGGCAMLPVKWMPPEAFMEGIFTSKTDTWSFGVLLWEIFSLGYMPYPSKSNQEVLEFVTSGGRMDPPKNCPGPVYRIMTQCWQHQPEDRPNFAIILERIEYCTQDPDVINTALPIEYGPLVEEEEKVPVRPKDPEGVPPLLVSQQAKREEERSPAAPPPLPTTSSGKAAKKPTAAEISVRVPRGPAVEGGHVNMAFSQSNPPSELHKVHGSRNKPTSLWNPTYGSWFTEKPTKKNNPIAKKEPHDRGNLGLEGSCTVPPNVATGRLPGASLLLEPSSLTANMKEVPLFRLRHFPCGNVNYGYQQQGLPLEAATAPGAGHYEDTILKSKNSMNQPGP

[8] = molecular target: Voltage-gated inwardly rectifying potassium channel KCNH2 (Homo sapiens, UniProt Q12809); test: Inhibition of human ERG
Chain of Voltage-gated inwardly rectifying potassium channel KCNH2 (Q12809 whole entry): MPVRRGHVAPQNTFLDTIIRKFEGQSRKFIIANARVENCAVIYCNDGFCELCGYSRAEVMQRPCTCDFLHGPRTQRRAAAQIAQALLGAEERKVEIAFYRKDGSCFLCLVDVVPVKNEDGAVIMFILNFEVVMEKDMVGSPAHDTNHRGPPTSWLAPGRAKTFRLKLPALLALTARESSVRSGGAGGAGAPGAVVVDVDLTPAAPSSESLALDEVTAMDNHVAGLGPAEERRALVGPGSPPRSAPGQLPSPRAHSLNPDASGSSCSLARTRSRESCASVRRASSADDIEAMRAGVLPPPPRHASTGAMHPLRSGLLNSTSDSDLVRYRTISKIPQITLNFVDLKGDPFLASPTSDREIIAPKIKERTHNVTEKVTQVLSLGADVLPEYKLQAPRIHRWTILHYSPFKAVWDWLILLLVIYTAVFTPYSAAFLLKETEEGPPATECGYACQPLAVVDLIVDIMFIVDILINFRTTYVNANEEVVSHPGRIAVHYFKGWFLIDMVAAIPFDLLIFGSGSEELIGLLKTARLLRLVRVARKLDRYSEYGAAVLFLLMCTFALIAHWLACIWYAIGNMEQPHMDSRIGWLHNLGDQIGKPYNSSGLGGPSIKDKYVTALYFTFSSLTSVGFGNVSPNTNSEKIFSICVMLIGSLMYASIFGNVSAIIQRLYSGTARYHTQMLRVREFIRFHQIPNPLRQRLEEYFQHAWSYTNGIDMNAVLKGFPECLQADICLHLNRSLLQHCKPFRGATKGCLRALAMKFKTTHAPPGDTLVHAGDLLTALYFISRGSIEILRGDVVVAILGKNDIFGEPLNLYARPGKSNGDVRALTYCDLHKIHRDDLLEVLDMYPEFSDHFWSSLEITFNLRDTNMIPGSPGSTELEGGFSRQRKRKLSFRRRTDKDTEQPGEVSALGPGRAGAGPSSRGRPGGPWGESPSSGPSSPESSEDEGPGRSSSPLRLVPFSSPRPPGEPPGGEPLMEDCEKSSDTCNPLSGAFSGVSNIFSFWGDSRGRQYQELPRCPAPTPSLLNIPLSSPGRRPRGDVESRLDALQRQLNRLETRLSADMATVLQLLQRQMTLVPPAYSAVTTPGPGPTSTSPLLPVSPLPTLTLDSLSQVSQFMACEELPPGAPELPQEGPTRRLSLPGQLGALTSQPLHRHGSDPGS

Cytochrome P450 1A2 = molecular target: T2, Cytochrome P450 1A2 (Homo sapiens, UniProt P05177); test: Inhibition of CYP1A2 in human liver microsomes using phenacetin as substrate in presence of NADPH by LC/MS/MS analysis; assay type: ADME
T2 sequence (P05177 whole entry): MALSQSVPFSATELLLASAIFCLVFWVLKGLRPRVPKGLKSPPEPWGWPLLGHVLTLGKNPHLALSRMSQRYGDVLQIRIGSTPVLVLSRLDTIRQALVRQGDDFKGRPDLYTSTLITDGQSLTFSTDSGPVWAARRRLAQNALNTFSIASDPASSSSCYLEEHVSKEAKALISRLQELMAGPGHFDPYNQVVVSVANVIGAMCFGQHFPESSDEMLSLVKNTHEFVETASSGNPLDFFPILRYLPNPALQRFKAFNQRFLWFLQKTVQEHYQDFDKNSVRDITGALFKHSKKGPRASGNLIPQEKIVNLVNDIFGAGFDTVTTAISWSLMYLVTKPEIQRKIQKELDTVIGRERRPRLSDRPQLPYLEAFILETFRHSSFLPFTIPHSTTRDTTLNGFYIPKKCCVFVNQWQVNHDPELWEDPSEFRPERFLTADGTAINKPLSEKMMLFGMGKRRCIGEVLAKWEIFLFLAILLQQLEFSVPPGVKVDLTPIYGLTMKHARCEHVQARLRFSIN

Cytochrome P450 2C9 = Cytochrome P450 2C9 (Homo sapiens, UniProt P11712); test: Inhibition of CYP2C9 in human liver microsomes using diclofenac as substrate in presence of NADPH by LC/MS/MS analysis; assay type: ADME
Chain of Cytochrome P450 2C9 (P11712 whole entry): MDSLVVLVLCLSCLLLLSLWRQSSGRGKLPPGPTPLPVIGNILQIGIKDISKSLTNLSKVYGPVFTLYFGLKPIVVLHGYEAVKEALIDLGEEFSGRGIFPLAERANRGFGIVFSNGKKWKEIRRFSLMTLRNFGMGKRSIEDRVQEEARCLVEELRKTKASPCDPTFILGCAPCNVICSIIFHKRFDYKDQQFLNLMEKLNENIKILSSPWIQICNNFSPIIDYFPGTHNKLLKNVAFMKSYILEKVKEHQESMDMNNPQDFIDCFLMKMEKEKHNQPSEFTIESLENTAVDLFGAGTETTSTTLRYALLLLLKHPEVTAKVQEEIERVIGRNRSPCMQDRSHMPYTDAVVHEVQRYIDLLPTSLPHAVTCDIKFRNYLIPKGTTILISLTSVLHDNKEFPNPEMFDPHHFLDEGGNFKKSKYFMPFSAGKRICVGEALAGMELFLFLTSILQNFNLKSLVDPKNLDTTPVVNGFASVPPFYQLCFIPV

Cytochrome P450 2C19 = Cytochrome P450 2C19 (Homo sapiens, UniProt P33261); test: Inhibition of CYP2C19 in human liver microsomes using S-mephenytoin as substrate in presence of NADPH by LC/MS/MS analysis; assay type: ADME
Chain of Cytochrome P450 2C19 (P33261 whole entry): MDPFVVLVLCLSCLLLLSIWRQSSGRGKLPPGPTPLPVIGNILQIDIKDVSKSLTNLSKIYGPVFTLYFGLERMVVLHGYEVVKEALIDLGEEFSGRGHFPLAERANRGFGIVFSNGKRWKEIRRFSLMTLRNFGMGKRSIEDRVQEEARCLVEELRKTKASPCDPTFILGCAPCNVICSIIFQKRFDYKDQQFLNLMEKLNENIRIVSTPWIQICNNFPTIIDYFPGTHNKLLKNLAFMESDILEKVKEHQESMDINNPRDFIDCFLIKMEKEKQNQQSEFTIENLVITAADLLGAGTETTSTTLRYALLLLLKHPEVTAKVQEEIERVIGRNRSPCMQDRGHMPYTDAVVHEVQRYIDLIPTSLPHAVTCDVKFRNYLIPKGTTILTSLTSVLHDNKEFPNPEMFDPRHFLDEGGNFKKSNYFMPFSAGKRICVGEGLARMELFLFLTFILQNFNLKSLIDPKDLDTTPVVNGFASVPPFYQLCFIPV

Cytochrome P450 2D6 = Cytochrome P450 2D6 (Homo sapiens, UniProt P10635); test: Inhibition of CYP2D6 in human liver microsomes using dextromethorphan as substrate in presence of NADPH by LC/MS/MS analysis; assay type: ADME
Chain of Cytochrome P450 2D6 (P10635 whole entry): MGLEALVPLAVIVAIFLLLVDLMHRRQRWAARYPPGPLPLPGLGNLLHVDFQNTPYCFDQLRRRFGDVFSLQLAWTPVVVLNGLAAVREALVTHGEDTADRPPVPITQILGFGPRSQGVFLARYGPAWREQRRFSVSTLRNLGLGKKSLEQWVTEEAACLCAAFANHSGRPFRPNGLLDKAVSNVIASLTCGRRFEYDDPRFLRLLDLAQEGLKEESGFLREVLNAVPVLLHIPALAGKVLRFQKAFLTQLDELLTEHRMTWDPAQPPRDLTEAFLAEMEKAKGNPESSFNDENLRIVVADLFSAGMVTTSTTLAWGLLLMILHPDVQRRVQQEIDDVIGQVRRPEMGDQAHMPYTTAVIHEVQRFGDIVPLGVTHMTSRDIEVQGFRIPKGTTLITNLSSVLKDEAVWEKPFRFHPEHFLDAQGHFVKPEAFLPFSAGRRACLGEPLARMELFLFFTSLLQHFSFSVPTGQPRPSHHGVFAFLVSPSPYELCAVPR

Cytochrome P450 3A4 = Cytochrome P450 3A4 (Homo sapiens, UniProt P08684); test: Inhibition of CYP3A4 in human liver microsomes using testosterone/midazolam as substrate in presence of NADPH by LC/MS/MS analysis; assay type: ADME
Chain of Cytochrome P450 3A4 (P08684 whole entry): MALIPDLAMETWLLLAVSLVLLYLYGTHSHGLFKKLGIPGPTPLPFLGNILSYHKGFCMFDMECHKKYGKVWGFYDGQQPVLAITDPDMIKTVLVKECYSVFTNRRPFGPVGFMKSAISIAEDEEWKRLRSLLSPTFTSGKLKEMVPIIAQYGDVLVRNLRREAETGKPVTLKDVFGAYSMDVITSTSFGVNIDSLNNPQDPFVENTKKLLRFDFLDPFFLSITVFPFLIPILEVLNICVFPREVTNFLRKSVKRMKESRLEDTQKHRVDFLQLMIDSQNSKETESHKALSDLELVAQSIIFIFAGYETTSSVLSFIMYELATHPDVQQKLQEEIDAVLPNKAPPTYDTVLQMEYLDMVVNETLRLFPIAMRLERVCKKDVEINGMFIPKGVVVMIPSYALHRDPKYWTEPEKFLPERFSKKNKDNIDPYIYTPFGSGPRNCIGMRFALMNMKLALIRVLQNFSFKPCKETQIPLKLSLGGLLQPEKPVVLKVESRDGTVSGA

[9] = Half life in cynomolgus monkey liver microsomes by LC/MS/MS analysis; assay type: ADME, Macaca fascicularis
[10] = Oral bioavailability in Sprague-Dawley rat at 5 mg/kg by LC/MS/MS analysis; assay type: ADME, organism-based; settings: in vivo
[11] = AUC (0 to infinity) in Sprague-Dawley rat at 5 mg/kg, po by LC/MS/MS analysis; assay type: ADME, organism-based; set-up: dose 5 mg/kg, time infinity, route oral; settings: in vivo
[12] = Apparent permeability from apical to basolateral side in human Caco2 cells; assay type: ADME, cell-based; settings: Caco-2
[13] = AUC (0 to 6 hrs) in rat by LC/MS/MS analysis; assay type: ADME; set-up: time < 6 hr; settings: in vivo
[14] = Drug metabolism in human liver microsomes assessed as methyl group loss from N-methylmethanesulfonamide; assay type: ADME
[15] = Drug metabolism in cynomolgus monkey liver microsomes assessed as methyl group loss from N-methylmethanesulfonamide; assay type: ADME, Macaca fascicularis
[16] = Drug metabolism in mouse liver microsomes assessed as methyl group loss from N-methylmethanesulfonamide; assay type: ADME
[17] = Drug metabolism in rat liver microsomes assessed as methyl group loss from N-methylmethanesulfonamide; assay type: ADME

COc1c(Nc2ncc(Cl)c(N[C@H]3[C@@H](C(N)=O)[C@@H]4C=C[C@H]3C4)n2)ccc2c1CCC[C@@H](N1CCOCC1)C2
IC50 [1]: 1.5 nM
half-life [2]: 5 min
half-life [3]: 5 min

COc1c(Nc2ncc(Cl)c(N[C@H]3[C@@H](C(N)=O)[C@@H]4C=C[C@H]3C4)n2)ccc2c1CC(N1CCOCC1)CCC2 (stereo partly specified)
IC50 [1]: 39 nM
IC50 (Insulin receptor): > 10000 nM

COc1c(Nc2ncc(Cl)c(N[C@H]3[C@@H](C(N)=O)[C@H]4C[C@@H]3C3OC34)n2)ccc2c1CC[C@@H](N1CCOCC1)CC2 (stereo partly specified)
Drug metabolism [4]: Metabolite_Detected
Drug metabolism [5]: Metabolite_Detected

COc1c(Nc2ncc(Cl)c(N[C@H]3[C@@H](C(N)=O)[C@@H]4C=C[C@H]3C4)n2)ccc2c1CCC[C@H](N1CCN(C)CC1)C2
half-life [6]: 40 min
IC50 [1]: 9 to 14 nM
half-life [2]: 40 min
half-life [3]: 15 min
IC50 [7]: 200 nM
IC50 [8]: 9100 nM
IC50 (Cytochrome P450 1A2): > 10000 nM
IC50 (Cytochrome P450 2C9): > 10000 nM
IC50 (Cytochrome P450 2C19): > 10000 nM
IC50 (Cytochrome P450 2D6): > 10000 nM
IC50 (Cytochrome P450 3A4): > 10000 nM
half-life [9]: 9 min
bioavailability [10]: 11%
AUC(0-inf) [11]: 4400 ng·h/mL

COc1c(Nc2ncc(Cl)c(N[C@H]3[C@@H](C(N)=O)[C@@H]4C=C[C@H]3C4)n2)ccc2c1CCC[C@@H](N1CCN(CCO)CC1)C2
IC50 [1]: 6.3 nM
IC50 [7]: 50 nM
IC50 [8]: > 10000 nM

COc1c(Nc2ncc(Cl)c(N[C@H]3[C@@H](C(N)=O)[C@@H]4C=C[C@H]3C4)n2)ccc2c1CCC[C@H](N1CCOCC1)C2
IC50 [1]: 7 nM
half-life [2]: 5 min
half-life [3]: 6 min

COCCNC1CCCc2c(ccc(Nc3ncc(Cl)c(N[C@H]4[C@@H](C(N)=O)[C@@H]5C=C[C@H]4C5)n3)c2OC)C1 (stereo partly specified)
IC50 [1]: 7 nM
half-life [2]: 31 min
half-life [3]: 15 min

CNC(=O)c1ccccc1Nc1nc(Nc2ccc3c(c2OC)CCC[C@@H](N2CCN(CCO)CC2)C3)ncc1Cl
half-life [6]: 40 min
half-life [2]: 40 min
half-life [3]: 40 min
IC50 [8]: > 10000 nM
IC50 (Cytochrome P450 1A2): > 5600 nM
IC50 (Cytochrome P450 2C9): > 5600 nM
IC50 (Cytochrome P450 2C19): > 5600 nM
IC50 (Cytochrome P450 2D6): > 5600 nM
half-life [9]: 24 min
bioavailability [10]: 18%
AUC(0-inf) [11]: 1200 ng·h/mL
Papp A→B [12]: > 1 ×10⁻⁶ cm/s

COc1c(Nc2ncc(Cl)c(N[C@H]3[C@@H](C(N)=O)[C@@H]4C=C[C@H]3C4)n2)ccc2c1CCC[C@H](N1CCN(CCO)CC1)C2
IC50 [1]: 5.8 nM
half-life [2]: 15 min
half-life [3]: 18 min
IC50 [7]: 30 nM
IC50 [8]: > 10000 nM
bioavailability [10]: 10%

CNC(=O)c1ccccc1Nc1nc(Nc2ccc3c(c2OC)CCCC(N2CCN(CCO)CC2)C3)ncc1Cl (racemic)
half-life [2]: > 40 min
half-life [3]: > 40 min
IC50 [8]: ≥ 10000 nM
bioavailability [10]: 47%

COc1c(Nc2ncc(Cl)c(Nc3ccccc3S(=O)(=O)N(C)C)n2)ccc2c1CCCC(N1CCN(CCO)CC1)C2 (racemic)
IC50 [1]: 4 nM
half-life [2]: 40 min
half-life [3]: 18 min
IC50 [7]: 40 nM
IC50 [8]: 240 nM
bioavailability [10]: 28%

COc1c(Nc2ncc(Cl)c(Nc3ccccc3N3CCCS3(=O)=O)n2)ccc2c1CCCC(N1CCN(CCO)CC1)C2 (racemic)
IC50 [1]: 6.1 nM
half-life [2]: 38 min
half-life [3]: 16 min
IC50 [7]: 60 nM
bioavailability [10]: 48%

COc1c(Nc2ncc(Cl)c(Nc3ccccc3-n3cccn3)n2)ccc2c1CCCC(N1CCN(CCO)CC1)C2 (racemic)
IC50 [1]: 2.3 nM
half-life [2]: 40 min
half-life [3]: 40 min
IC50 [7]: 20 nM
IC50 [8]: 3700 nM
bioavailability [10]: 19%

COc1c(Nc2ncc(Cl)c(Nc3ccccc3N(C)S(C)(=O)=O)n2)ccc2c1CCCC(N1CCN(CCO)CC1)C2 (racemic)
half-life [6]: 37 min
IC50 [1]: 2 nM
half-life [2]: 37 min
half-life [3]: 13 min
IC50 [7]: 30 nM
half-life [9]: 8 min
bioavailability [10]: 38%
AUC(0-t) at 6 h [13]: 3960 ng·h/mL
Drug metabolism [14]: Metabolite_Detected
Drug metabolism [15]: Metabolite_Detected
Drug metabolism [16]: Metabolite_Detected
Drug metabolism [17]: Metabolite_Detected

COc1ccccc1Nc1nc(Nc2ccc3c(c2OC)CCCC(N2CCN(CCO)CC2)C3)ncc1Cl (racemic)
IC50 [1]: 44 nM

COc1c(Nc2ncc(Cl)c(Nc3ccccc3NS(C)(=O)=O)n2)ccc2c1CCCC(N1CCN(CCO)CC1)C2 (racemic)
IC50 [1]: 18 nM
half-life [2]: 40 min
half-life [3]: 40 min
IC50 (Insulin receptor): > 2000 nM

COc1c(Nc2ncc(Cl)c(Nc3ccccc3-c3nccn3C)n2)ccc2c1CCCC(N1CCN(CCO)CC1)C2 (racemic)
IC50 [1]: 5 nM
half-life [2]: 22 min
half-life [3]: 18 min
IC50 [7]: 50 nM
bioavailability [10]: 19%

COc1c(Nc2ncc(Cl)c(Nc3ccccc3N(C)S(C)(=O)=O)n2)ccc2c1CCCC(N1CCN(C)CC1)C2 (racemic)
IC50 [1]: 2.3 nM
half-life [2]: 33 min
half-life [3]: 12 min
IC50 [7]: 40 nM
bioavailability [10]: 9%
AUC(0-t) at 6 h [13]: 1300 ng·h/mL

COc1c(Nc2ncc(Cl)c(N[C@H]3[C@@H](C(N)=O)[C@@H]4C=C[C@H]3C4)n2)ccc2c1CCCC(N1CCN(C)CC1)C2 (single isomer, unassigned)
half-life [6]: 40 min
IC50 [1]: 9 nM
half-life [2]: 39 min
half-life [3]: 11 min
IC50 [7]: 200 nM
IC50 [8]: 7900 nM
IC50 (Cytochrome P450 1A2): > 10000 nM
IC50 (Cytochrome P450 2C9): > 10000 nM
IC50 (Cytochrome P450 2C19): > 10000 nM
IC50 (Cytochrome P450 2D6): > 10000 nM
IC50 (Cytochrome P450 3A4): > 10000 nM
half-life [9]: 7 min
bioavailability [10]: 11%
AUC(0-inf) [11]: 5530 ng·h/mL
